Tests used:
Type in all cases: functional
Saccharomyces cerevisiae [1] = assay: (§1) MMV: Growth assays were conducted using the prototrophic S. cerevisiae strain JHY222. Each MMV compound (0.1 mM) was tested in minimal media containing dextrose as a carbon source (Yeast Nitrogen Base, Dextrose; YNBD). The growth rate in the presence of each MMV compound was calculated as follows: (i) the first 10 OD readings were averaged and subtracted from all OD readings of the corresponding curve to set the baseline of the growth curve to zero, and (ii) the area under the curve (AUC) was then calculated as the sum of all OD readings. […] A relative growth value was calculated as follows: AUC(DRUG) - AUC(DMSO)/AUC(DMSO); where AUC(DMSO) represents growth measured in a DMSO control well that was on the same microtiter plate of the drug-treated culture.
Saccharomyces cerevisiae [2] = assay: as §1, with “rich” for “minimal”, “Extract, Peptone,” for “Nitrogen Base,”, “YPD).” for “YNBD).”
Saccharomyces cerevisiae [3] = assay: as §1, with “ethanol and glycerol” for “dextrose”, “as” for “as a”, “sources” for “source”, “Ethanol, Glycerol; YNBEG).” for “Dextrose; YNBD).”

Structure (SMILES) | Relative Growth (Saccharomyces cerevisiae [1]) | Relative Growth (Saccharomyces cerevisiae [2]) | Relative Growth (Saccharomyces cerevisiae [3])
CNCCCNc1ccnc2cc(Cl)ccc12 | 0.075 | 0.1016 | 0.188
Cc1cc(C)c2nc(N3CCC(C(=O)NCCCN4CCC(N5CCCCC5)CC4)CC3)sc2c1 | -0.0696 | -0.0409 | -0.0414
O=C(NNc1cc(N2CCCC2)nc(N2CCCC2)n1)c1ccccc1 | 0.0342 | -0.9952 | -0.0043
CCOc1ccc(-c2nonc2NC(=O)c2cccc(C)c2)cc1OCC | 0.0895 | 0.0084 | -0.1269
OC(CNC1CCCCC1)Cn1c2ccccc2c2ccccc21 (configuration not stated) | 0.0533 | -0.0297 | 0.1093
COc1cccc(NC(=O)[C@H](C(C)C)n2c(=O)[nH]c3ccccc3c2=O)c1 | -0.0427 | 0.0157 | 0.0015
Cc1[nH]c(-c2ccc(F)cc2)cc1C(=O)NC1CCN(Cc2ccccc2)CC1 | 0.023 | 0.0962 | 0.2181
COc1ccc(CCN2CCC(CN(C)Cc3cnn(-c4ccccc4)c3)CC2)cc1 | -0.2117 | 0.0613 | -0.844
c1ccc(-c2ccc(-c3nc4ccccc4[nH]3)cc2)cc1 | -0.0469 | -0.0154 | 0.0562
Cn1c(C(=O)c2cccc3ccccc23)nc2ccccc21 | 0.0393 | -0.0135 | 0.1204
Oc1ccc2ccccc2c1CNc1nc2ccccc2[nH]1 | -0.1179 | -0.0053 | -0.0356
CCc1c(C)c(=N)c2ccccc2n1C.I | 0.0986 | -0.0391 | 0.0462
Oc1ccc(C(=C(Cl)Cl)c2ccc(O)cc2)cc1 | -0.227 | 0.0294 | -0.5689
CCc1ccc(CNCC(O)c2ccccc2)cc1.Cl (configuration not stated) | -0.0182 | -0.1772 | -0.0955
CCn1nc(-c2ccc(C(=O)OC)cc2)nc2c(=O)n(C)c(=O)nc1-2 | 0.0968 | 0.0103 | 0.1078
CCN1CCN(Cc2ccc(NC(=O)c3cc4ccc5cccnc5c4[nH]3)cc2)CC1 | 0.0158 | 0.0075 | -0.0693
COc1ccc(CN2CCN(Cc3ccccc3)CC2)c(O)c1 | 0.0478 | -0.0119 | 0.0718
CCCc1c(CC)c(=N)c2ccccc2n1C | -0.0316 | -0.0123 | -0.1464
CCCN(CCC)CCCNC(=O)c1cc2c(-c3ccc(OC)c(OC)c3)nn(C)c2s1 | -0.0982 | -0.0057 | -0.061
CCCCOc1ccc(C(=O)Nc2cc(C)on2)cc1 | -0.0653 | -0.0346 | -0.1988

Structure (SMILES) | Relative Growth (Saccharomyces cerevisiae [1]) | Relative Growth (Saccharomyces cerevisiae [2]) | Relative Growth (Saccharomyces cerevisiae [3])
OC1=C2C(=Nc3ccccc3SC2c2ccccc2)c2ccccc21 (configuration not stated) | -0.1585 | -0.0053 | -0.0669
Cc1ccc2c(C)nc(Nc3nc(C)cc(-c4ccccc4)n3)nc2c1 | -0.1458 | -0.9982 | -0.009
COc1ccc(C(=O)NC(c2ccccc2Cl)c2cc(Cl)c3cccnc3c2O)cc1 (configuration not stated) | -1.0012 | -0.3676 | -1.0144
COc1ccc2c(=O)cc(C(Cl)(Cl)Cl)oc2c1 | 0.0555 | 0.0032 | -0.0182
O=C(NC(c1ccccc1)c1ccc2cccnc2c1O)c1ccccc1 (configuration not stated) | -0.0745 | 0.0169 | -0.2626
CC(C)(C)C(=O)Nc1ccc(C(=O)Nc2cccc(-c3nc4ccccc4[nH]3)c2)cc1 | -0.1639 | 0.0628 | -0.4785
CC(=O)NCCc1nc2ccccc2n1Cc1ccc(C(C)C)cc1 | -0.0851 | 0.0716 | 0.1937
O=C(Nc1ccc(-c2nc3ccccc3[nH]2)cc1)c1ccc(Cl)c(Cl)c1 | 0.027 | 0.0053 | 0.0462
Cc1ccc(NC(=O)Nc2cccc(Cl)c2)cc1F | 0.0155 | -0.0033 | 0.0189
CCOc1cccc(C(=O)Nc2ccc(-c3nc4ccccc4[nH]3)cc2)c1 | 0.0858 | -0.0469 | 0.032
CCN(CC)CCNc1ccnc2cc(Cl)ccc12 | 0.0543 | -0.0501 | 0.0209
CCOc1c(Cl)cc(CNC(C)C(O)c2ccccc2)cc1OC (configuration not stated) | -0.05 | -0.0562 | 0.1383
CCOc1cc(CNC(C)C(O)c2ccccc2)cc(Cl)c1OCC (configuration not stated) | 0.088 | -0.0689 | -0.0694
OC1CCCCC1C1(NC(=S)Nc2ccccc2)CCCCC1 (configuration not stated) | -0.1203 | 0.0255 | 0.0032
CN(C)c1ccc(N2C(N)=NC(N)=NC2(C)C)cc1 | 0.0279 | -0.0542 | 0.007
Nc1nc(Nc2cccc(F)c2)nc2ccccc12 | -0.0889 | -0.0359 | -0.012
Br.Cc1ccc(C)c(-c2csc(Nc3ccc(C)c(C)c3)n2)c1 | -0.0757 | -0.11 | -0.3216
Nc1ccc(-c2nc3cc(Oc4ccc(Oc5ccc6[nH]c(-c7ccc(N)cc7)nc6c5)cc4)ccc3[nH]2)cc1 | 0.0002 | -0.9892 | -0.1502
COc1ccc(CN2CCCC(C(=O)c3ccc(C(F)(F)F)cc3)C2)c(O)c1 (configuration not stated) | -0.4404 | -0.2476 | -0.9168
CC(O)(c1ccc(Cl)cc1)C(CN1CCCCC1)c1ccccc1.Cl (configuration not stated) | -0.0009 | 0.0259 | 0.0803

Structure (SMILES) | Relative Growth (Saccharomyces cerevisiae [1]) | Relative Growth (Saccharomyces cerevisiae [2]) | Relative Growth (Saccharomyces cerevisiae [3])
CC(C)(C)c1ccc(C(=O)Nc2nc3ccccc3s2)cc1 | -0.0029 | -0.132 | -0.4045
COc1ccc2nc(N)nc(C)c2c1 | 0.0302 | -0.0479 | -0.0106
Cc1ccc(Nc2nc(N)c3ccccc3n2)cc1Cl | -0.1031 | -0.0022 | -0.1803
COc1cc(SC)ccc1C(=O)N1CCCC(C)C1 (configuration not stated) | 0.0716 | -0.0213 | -0.0182
COCCN(C(=O)Cc1cccs1)C(C(=O)NCc1ccc(OC)cc1)c1ccc(C(C)C)cc1 (configuration not stated) | 0.0051 | 0.0044 | 0.2007
COc1cc(C(=O)Nc2ccc(-c3nc4ccccc4[nH]3)cc2)cc(OC)c1OC | -0.5664 | -0.1004 | -0.2463
CSC1=NC(=Nc2c(C)cccc2C)C2(CCC(C(C)(C)C)CC2)N1c1ccc(Cl)cc1 (configuration not stated) | 0.0233 | -0.0962 | 0.0048
O=C(CSc1ccc2nnc(-c3cccc(F)c3)n2n1)Nc1ccc2c(c1)OCO2 | -0.0662 | -0.0335 | -0.3285
COc1cccc(C=Cc2nc(=O)c3ccccc3o2)c1OC | 0.0576 | -0.0201 | -0.4404
O=C(Nc1ccc(N2CCN(Cc3ccccc3)CC2)cc1)c1cccs1.O=C(O)C(F)(F)F | -0.0637 | -0.129 | -0.0052
COCCNC(=O)c1ccc(OC2CCN(Cc3ccc(F)c(F)c3)CC2)c(Cl)c1 | -0.0136 | 0.1615 | 0.0235
O=C1c2ccccc2-c2nnc(-c3ccc(Br)cc3)cc21 | 0.0312 | -0.0452 | 0.1282
Oc1ccc(Cl)cc1CNc1nc2ccccc2[nH]1 | -0.0661 | -0.0141 | -0.0134
COc1ccc(C(=O)Nc2ccc(Cl)cc2C(=O)Nc2ccncc2)cc1 | -0.1015 | -0.2989 | 0.1271
Cc1cc(NCCN2CCCCC2)c2ccc3ccccc3c2n1 | 0.1405 | 0.101 | 0.1901
O=C(Cc1ccccc1)NC(c1ccc(Cl)cc1)c1c(O)ccc2ccccc12 (configuration not stated) | -0.1217 | 0.0198 | 0.0388
CC(NCc1ccccc1)c1cc(Cl)ccc1O (configuration not stated) | 0.042 | -0.0386 | –
O=C(Nc1ccsc1C(=O)NC1CCCCC1)c1ccc(F)cc1 | 0.1187 | -0.9286 | –

— ChEMBL document CHEMBL3301546, “MMV Malaria Box yeast growth screening”
